Source: patent US11702402B2, “Small molecules that block proteasome-associated ubiquitin receptor RPN13 function and uses thereof” (DANA-FARBER CANCER INSTITUTE, INC., priority 2018, dated 2023)

System: cyclin-B1, CDC25C, and CDCl2
Experiment: Cell-cycle regulatory protein immunoblot
Type: cell-based, Human
Conditions: MM.1S 200 nM; ANBL6.BR 1 μM; 16 hours
Procedure: FIGS. 22A to 22F show the mechanisms of WL40-induced MM cell death. […] MM.1S cells were treated with DMSO control or WL40 (200 nM) for 16 hours, and then analyzed for apoptosis using Annexin V/PI double staining assay (mean±SD; n=3; p<0.001). FIG. 22B is an immunoblot of MM.1S and ANBL6.BR cells, which were treated with DMSO control or WL40 (200 nM for MM.1S; 1 μM for ANBL6.BR) for 16 hours; protein lysates were then subjected to the immunoblotting using antibodies against poly ADP ribose polymerase (PARP), caspase-3, caspase-7, caspase-8, caspase-9, or β-actin. FL, full length; CF, cleaved fragment. FIG. 22C is a bar graph measuring enzymatic activity. MM.1S cells were treated with DMSO control or WL40 (200 nM) for 12 hours, followed by the measurement of caspase-3, caspase-8, or caspase-9 enzymatic activity (mean±SD; n=3; p<0.0001). FIG. 22D is an immunoblot of MM.1S and ANBL6.BR cells, which were treated with DMSO control or WL40 (200 nM for MM.1S; 1 μM for ANBL6.BR) for 16 hours; protein lysates were then subjected to the immunoblotting using specific antibodies against Cyclin-B1, Cell Division Cycle 25C (CDC25C), Cell Division Cycle 2 (CDCl2), or β-actin. […]

Structure (SMILES): O=C1CCC(N2C(=O)c3cccc(NCCOCCOCCOCCC(=O)N[C@@H](Cc4ccccc4)C(=O)N4C/C(=C\c5ccc(Cl)c(Cl)c5)C(=O)/C(=C/c5ccc(Cl)c(Cl)c5)C4)c3C2=O)C(=O)N1 (stereo partly shown) [WL40]
- levels of cell-cycle regulatory proteins: reduction in the levels of cell-cycle regulatory proteins
